Measurements from PubChem BioAssay AID248 (DTP/NCI, 2004).
Values joined by “and” are separate entries in the source; they are usually repeats but may differ in a detail not shown here. Equal values may be shown once. Inconclusive results and toxic doses are left out. No stated cut-off is given here; in the data, active means T/C of 150% or more; inactive means T/C below 125%.

System: L1210 leukemia ip in BDF1 mice, survival T/C
Test: NCI In Vivo Anticancer Drug Screen. Data for tumor model L1210 Leukemia (intraperitoneal) in B6D2F1 (BDF1) mice
Conditions: endpoint: mean survival time, higher = longer survival
Procedure, shortened: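 Transplantable tumor model; survival measured in treated vs vehicle control mice. Value = treated/control.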

[1] = dose: 100.0 mg/kg/injection, schedule: Q01DX001 (ip), vehicle: carboxymethylcellulose (CMC)
[2] = dose: 200.0 mg/kg/injection, schedule: Q01DX001 (ip), vehicle: carboxymethylcellulose (CMC)
[3] = dose: 400.0 mg/kg/injection, schedule: Q01DX001 (ip), vehicle: carboxymethylcellulose (CMC)
[4] = dose: 12.5 mg/kg/injection, schedule: Q04DX003 (ip), vehicle: saline with Tween-80
[5] = dose: 25.0 mg/kg/injection, schedule: Q04DX003 (ip), vehicle: saline with Tween-80
[6] = dose: 50.0 mg/kg/injection, schedule: Q04DX003 (ip), vehicle: saline with Tween-80
[7] = dose: 100.0 mg/kg/injection, schedule: Q01DX009 (ip), vehicle: Klucel (hydroxypropylcellulose) (HPC)
[8] = dose: 200.0 mg/kg/injection, schedule: Q01DX009 (ip), vehicle: Klucel (hydroxypropylcellulose) (HPC)
[9] = dose: 100.0 mg/kg/injection, schedule: Q01DX001 (ip), vehicle: saline
[10] = dose: 200.0 mg/kg/injection, schedule: Q01DX001 (ip), vehicle: saline
[11] = dose: 400.0 mg/kg/injection, schedule: Q01DX001 (ip), vehicle: saline
[12] = dose: 100.0 mg/kg/injection, schedule: Q04DX003 (ip), vehicle: saline with Tween-80

Measured: T/C

O=C(O)c1ccc(C(=O)c2ccc([N+](=O)[O-])cc2)cc1
inactive: dose: 25.0 mg/kg/injection, schedule: Q01DX009 (ip), vehicle: carboxymethylcellulose (CMC) 102 % of control and 104 % of control | dose: 50.0 mg/kg/injection, schedule: Q01DX009 (ip), vehicle: carboxymethylcellulose (CMC) 95 % of control and 108 % of control | [1] 92 % of control and 97 % of control | dose: 100.0 mg/kg/injection, schedule: Q01DX009 (ip), vehicle: carboxymethylcellulose (CMC) 95 % of control and 102 % of control | dose: 100.0 mg/kg/injection, schedule: Q04DX002 (ip), vehicle: carboxymethylcellulose (CMC) 101 % of control and 102 % of control | dose: 100.0 mg/kg/injection, schedule: Q04DX003 (ip), vehicle: carboxymethylcellulose (CMC) 105 % of control and 114 % of control | [2] 98 % of control and 100 % of control | dose: 200.0 mg/kg/injection, schedule: Q04DX002 (ip), vehicle: carboxymethylcellulose (CMC) 93 % of control and 95 % of control | dose: 200.0 mg/kg/injection, schedule: Q04DX003 (ip), vehicle: carboxymethylcellulose (CMC) 97 % of control and 98 % of control | [3] 93 % of control and 100 % of control | dose: 400.0 mg/kg/injection, schedule: Q01DX009 (ip), vehicle: carboxymethylcellulose (CMC) 104 % of control | dose: 400.0 mg/kg/injection, schedule: Q04DX002 (ip), vehicle: carboxymethylcellulose (CMC) 95 % of control and 98 % of control | dose: 400.0 mg/kg/injection, schedule: Q04DX003 (ip), vehicle: carboxymethylcellulose (CMC) 96 % of control and 88 % of control

CN(C)C=NCCOCc1ccccc1
inactive: dose: 100.0 mg/kg/injection, schedule: Q04DX003 (ip), vehicle: saline 98 % of control | dose: 200.0 mg/kg/injection, schedule: Q04DX003 (ip), vehicle: saline 93 % of control

O=C1NC(c2ccccc2)(c2ccccc2)C(=O)N1CNc1ccc(Br)cc1
inactive: dose: 100.0 mg/kg/injection, schedule: Q04DX003 (ip), vehicle: Klucel (hydroxypropylcellulose) (HPC) 89 % of control | dose: 200.0 mg/kg/injection, schedule: Q04DX003 (ip), vehicle: Klucel (hydroxypropylcellulose) (HPC) 89 % of control | dose: 400.0 mg/kg/injection, schedule: Q04DX003 (ip), vehicle: Klucel (hydroxypropylcellulose) (HPC) 92 % of control

CCCCCCCCCCCCOP(=O)(OCC)OCC
inactive: dose: 100.0 mg/kg/injection, schedule: Q04DX002 (ip), vehicle: saline with Tween-80 88 % of control | dose: 200.0 mg/kg/injection, schedule: Q04DX002 (ip), vehicle: saline with Tween-80 88 % of control | dose: 400.0 mg/kg/injection, schedule: Q04DX002 (ip), vehicle: saline with Tween-80 88 % of control

Cc1cc2c(cc1C)N(C(=O)CN1CCCCC1)CC(=O)N2
inactive: dose: 75.0 mg/kg/injection, schedule: Q01DX001 (ip), vehicle: saline 93 % of control | dose: 150.0 mg/kg/injection, schedule: Q01DX001 (ip), vehicle: saline 91 % of control | dose: 300.0 mg/kg/injection, schedule: Q01DX001 (ip), vehicle: saline 93 % of control

C=CC(C)C1C(C)C(Cl)CC(Cl)C1OC(=O)c1ccccc1 (stereo unspecified)
inactive: dose: 50.0 mg/kg/injection, schedule: Q01DX001 (ip), vehicle: carboxymethylcellulose (CMC) 100 % of control | [1] 112 % of control | [2] 94 % of control | [3] 96 % of control

CCn1c(C)[n+](CC)c2ccc(C(C)=O)cc21
inactive: dose: 100.0 mg/kg/injection, schedule: Q01DX001 (ip), vehicle: saline with Tween-80 97 % of control

CC(=O)Oc1ccc2c3c(c(=O)oc2c1)C(C)(C)c1c(c(=O)oc2cc(OC(C)=O)ccc12)C3(C)C
inactive: dose: 100.0 mg/kg/injection, schedule: Q01DX009 (ip), vehicle: saline sonified 97 % of control | dose: 100.0 mg/kg/injection, schedule: Q04DX003 (ip), vehicle: saline sonified 102 % of control | dose: 200.0 mg/kg/injection, schedule: Q01DX009 (ip), vehicle: saline sonified 98 % of control | dose: 200.0 mg/kg/injection, schedule: Q04DX003 (ip), vehicle: saline sonified 97 % of control | dose: 400.0 mg/kg/injection, schedule: Q01DX009 (ip), vehicle: saline sonified 98 % of control | dose: 400.0 mg/kg/injection, schedule: Q04DX003 (ip), vehicle: saline sonified 105 % of control

CC(C)=CCC(=O)NCC(CCN1CCCCC1)(c1cccc2ccccc12)C(C)C (stereo unspecified)
inactive: [4] 96 % of control | [5] 88 % of control | dose: 50.0 mg/kg/injection, schedule: Q01DX003 (ip), vehicle: saline with Tween-80 88 % of control | [6] 92 % of control | [7] 90 % of control | [8] 90 % of control

CCOP(=O)(OCC)Oc1ccc(S(C)=O)cc1 (stereo unspecified)
inactive: dose: 5.0 mg/kg/injection, schedule: Q01DX001 (ip), vehicle: saline 114 % of control

O=C(Oc1ccc(N=Cc2ccccc2)cc1)Oc1ccc(N=Cc2ccccc2)cc1
inactive: [9] 86 % of control | [10] 86 % of control | [11] 95 % of control

S=C=Nc1ccc(Cl)cc1
inactive: [5] 107 % of control | [6] 96 % of control | [12] 95 % of control and 101 % of control

COc1ccc2ncc(C)c(C=O)c2c1
inactive: [7] 95 % of control | [8] 96 % of control | dose: 400.0 mg/kg/injection, schedule: Q01DX009 (ip), vehicle: Klucel (hydroxypropylcellulose) (HPC) 110 % of control

O=C(CCc1ccccc1)NC1CCCCC1
inactive: dose: 12.5 mg/kg/injection, schedule: Q01DX001 (ip), vehicle: Klucel (hydroxypropylcellulose) (HPC) 104 % of control | dose: 12.5 mg/kg/injection, schedule: Q04DX003 (ip), vehicle: saline 88 % of control | dose: 25.0 mg/kg/injection, schedule: Q01DX001 (ip), vehicle: Klucel (hydroxypropylcellulose) (HPC) 104 % of control | dose: 25.0 mg/kg/injection, schedule: Q04DX003 (ip), vehicle: saline 88 % of control | dose: 50.0 mg/kg/injection, schedule: Q01DX001 (ip), vehicle: Klucel (hydroxypropylcellulose) (HPC) 98 % of control | dose: 50.0 mg/kg/injection, schedule: Q04DX003 (ip), vehicle: saline 93 % of control

Nc1nc(CCCCc2ccc(NC(=O)CBr)cc2)c(CCCCc2ccccc2)c(=O)[nH]1
inactive: dose: 6.25 mg/kg/injection, schedule: Q04DX003 (ip), vehicle: saline with Tween-80 96 % of control | [4] 105 % of control | [5] 102 % of control and 110 % of control | dose: 50.0 mg/kg/injection, schedule: Q01DX001 (ip), vehicle: saline 108 % of control | [12] 91 % of control

CCC/C(=N\NC(=O)c1ccc(OC)cc1)c1ccccc1
inactive: dose: 50.0 mg/kg/injection, schedule: Q01DX009 (ip), vehicle: saline with Tween-80 94 % of control | dose: 100.0 mg/kg/injection, schedule: Q01DX009 (ip), vehicle: saline with Tween-80 102 % of control | dose: 200.0 mg/kg/injection, schedule: Q01DX009 (ip), vehicle: saline with Tween-80 94 % of control

Cc1cc(S(=O)(=O)F)ccc1NC(=O)NCc1ccc([N+](=O)[O-])cc1
inactive: [7] 100 % of control | [8] 106 % of control

CCOC(=O)/C(C#N)=C\c1ccc2n1Cc1cc3c(cc1N(C(C)=O)C2)OCO3
inactive: dose: 25.0 mg/kg/injection, schedule: Q04DX002 (ip), vehicle: Klucel (hydroxypropylcellulose) (HPC) 102 % of control | dose: 50.0 mg/kg/injection, schedule: Q04DX002 (ip), vehicle: Klucel (hydroxypropylcellulose) (HPC) 95 % of control | dose: 100.0 mg/kg/injection, schedule: Q04DX002 (ip), vehicle: Klucel (hydroxypropylcellulose) (HPC) 98 % of control

CCN(CC)Cc1nnnn1-c1ccccc1
inactive: [9] 103 % of control | [10] 97 % of control | [11] 106 % of control

C=CCOc1c(C)cc(C)cc1/C=C/C
inactive: [12] 94 % of control | dose: 200.0 mg/kg/injection, schedule: Q04DX003 (ip), vehicle: saline with Tween-80 97 % of control | dose: 400.0 mg/kg/injection, schedule: Q04DX003 (ip), vehicle: saline with Tween-80 96 % of control
